Measured values reported in patent publication US20070259055A1, “Method of deactivating dust mite allergens” (priority 2000, published 2007).

Target: T1, house dust mite (Dermatophagoides pteronyssinus) allergen (Der-pl) (Dermatophagoides pteronyssinus, UniProt P08176)
T1 construct: Test dust had been obtained from household vacuum cleaner bags; from tissue; host or cells: house dust (British; vacuum cleaner bags), sieved fraction smaller than 53 microns
T1 sequence (P08176 99-320): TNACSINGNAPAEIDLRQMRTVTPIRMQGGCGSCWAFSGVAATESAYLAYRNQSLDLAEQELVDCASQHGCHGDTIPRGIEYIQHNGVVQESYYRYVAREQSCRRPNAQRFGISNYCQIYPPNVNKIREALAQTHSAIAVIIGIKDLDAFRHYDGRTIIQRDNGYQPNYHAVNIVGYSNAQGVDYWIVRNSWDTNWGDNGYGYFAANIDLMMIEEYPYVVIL
Test: Example 3: test liquid sprayed onto dust in petri dish, Der-pl ELISA
Format: biochemical
Method: Dust was collected from vacuum cleaner bags and passed through a series of sieves down to 53 microns. Clean petri dishes were labeled with the chemical to be tested and lined with filter paper. 0.3 g of dust was added to each dish and spread evenly over the filter paper. 0.1 g of dust was then removed from the filter paper for a control sample. The remaining dust was then redistributed evenly over the filter paper. 2.4 g+/−0.2 g of test chemical was sprayed onto the dust sample. The dust sample was left open to the air until the filter paper was dry. The dust was collected into eppendorfs and the weight of dust recovered was measured. 1 ml of 1% Bovine Serum Albumin-Phosphate Buffered Saline-Tween (BSA-PBS-T) was added to the control samples. 1 ml of 5% BSA-PBS-T was added to the test samples. The samples were left overnight in the refrigerator and then centrifuged for 5 minutes at 13,000 rpm. The supernatant was pipetted into an eppendorf for assay by Der-pl ELISA.
The test liquids were: • Distilled water • 2% Tea Tree Oil in distilled water (plus 0.1% Tween) • 2% Citronella Oil in distilled water (plus 0.10% Tween) • 1% Thymol in distilled water (plus 0.8% Tween) • 2% Hinoki Oil in distilled water (plus 0.1% Tween) • 2% Tannic Acid
Five replicates were completed for each test liquid. The allergen content of the control for each replicate was compared with the test sample allergen. The percentage reductions in allergen between the control and the test were determined for each replicate.

Cc1ccc(C(C)C)c(O)c1 [Thymol, 6-isopropyl-m-cresol]
allergen reduction more than the water alone tests (test liquid sprayed onto dust (2% Tea Tree Oil or 1% Thymol in distilled water plus Tween), average of five replicates, water alone 34.2%): 23.6%
significance of allergen reduction versus water tests (test liquid sprayed onto dust, t-test versus water): significant

O=C(OC[C@H]1O[C@@H](OC(=O)c2cc(O)c(O)c(OC(=O)c3cc(O)c(O)c(O)c3)c2)[C@H](OC(=O)c2cc(O)c(O)c(OC(=O)c3cc(O)c(O)c(O)c3)c2)[C@@H](OC(=O)c2cc(O)c(O)c(OC(=O)c3cc(O)c(O)c(O)c3)c2)[C@@H]1OC(=O)c1cc(O)c(O)c(OC(=O)c2cc(O)c(O)c(O)c2)c1)c1cc(O)c(O)c(OC(=O)c2cc(O)c(O)c(O)c2)c1 [tannic acid]
average allergen reduction (2% Tannic Acid sprayed onto dust, positive control, five replicates): 99.15%
